Test results: patent publication US9265253B2, “Use of macrocyclic picolinamides as fungicides” (DOW AGROSCIENCES LLC, priority 2013, dated 2016)

Assays:
Type in all cases: in vivo
Alternaria solani = assay: Tomato Early Blight (ALTESO) disease control; details: 1 Day Protectant; for pest or weed control at 100 ppm: Alternaria solani, topical, 24 h, read-out: Disease Control ALTESO 1 DP
Procedure: Technical grades of materials were dissolved in acetone, which were then mixed with nine volumes of water containing 110 ppm Triton X-100. The fungicide solutions were applied onto wheat seedlings using an automated booth sprayer to run-off. All sprayed plants were allowed to air dry prior to further handling. All fungicides were evaluated using the aforementioned method for their activity vs. all target diseases. Wheat leaf blotch and brown rust activity were also evaluated using track spray applications, in which case the fungicides were formulated as EC formulations, containing 0.1% Trycol 5941 in the spray solutions. Wheat plants (variety Yuma) were grown from seed in a greenhouse in 50% mineral soil/50% soil-less Metro mix until the first leaf was fully emerged, with 7-10 seedlings per pot. These plants were inoculated with an aqueous spore suspension of Septoria tritici either prior to or after fungicide treatments. After inoculation the plants were kept in 100% relative humidity (one day in a dark dew chamber followed by two to three days in a lighted dew chamber at 20° C.) to permit spores to germinate and infect the leaf. The plants were then transferred to a greenhouse set at 20° C. for disease to develop. When disease symptoms were fully expressed on the 1st leaves of untreated plants, infection levels were assessed on a scale of 0 to 100 percent disease severity. Percent disease control was calculated using the ratio of disease severity on treated plants relative to untreated plants. Tomato plants (variety Outdoor girl) were propagated in soil-less Metro mix, with each pot having one plant, and used when 12 to 14 days old. Test plants were inoculated with an aqueous spore suspension of Alternaria solani 24 hr after fungicide treatments. After inoculation the plants were kept in 100% relative humidity (one day in a dark dew chamber followed by two to three days in a lighted dew chamber at 20° C.) to permit spores to germinate and infect the leaf. The plants were then transferred to a growth room at 22° C. for disease to develop. Fungicide formulation, application and disease assessment on the sprayed leaves followed the procedures as described in the Example A.

Erysiphe cichoracearum = assay: Powdery Mildew of Cucumber (ERYSCI) disease control; details: 1 Day Protectant; for pest or weed control at 100 ppm: Golovinomyces cichoracearum, topical, 24 h, read-out: Disease Control ERYSCI 1 DP
Procedure: Technical grades of materials were dissolved in acetone, which were then mixed with nine volumes of water containing 110 ppm Triton X-100. The fungicide solutions were applied onto wheat seedlings using an automated booth sprayer to run-off. All sprayed plants were allowed to air dry prior to further handling. All fungicides were evaluated using the aforementioned method for their activity vs. all target diseases. Wheat leaf blotch and brown rust activity were also evaluated using track spray applications, in which case the fungicides were formulated as EC formulations, containing 0.1% Trycol 5941 in the spray solutions. Wheat plants (variety Yuma) were grown from seed in a greenhouse in 50% mineral soil/50% soil-less Metro mix until the first leaf was fully emerged, with 7-10 seedlings per pot. These plants were inoculated with an aqueous spore suspension of Septoria tritici either prior to or after fungicide treatments. After inoculation the plants were kept in 100% relative humidity (one day in a dark dew chamber followed by two to three days in a lighted dew chamber at 20° C.) to permit spores to germinate and infect the leaf. The plants were then transferred to a greenhouse set at 20° C. for disease to develop. When disease symptoms were fully expressed on the 1st leaves of untreated plants, infection levels were assessed on a scale of 0 to 100 percent disease severity. Percent disease control was calculated using the ratio of disease severity on treated plants relative to untreated plants. Cucumber seedlings (variety Bush Pickle) were grown in soil-less Metro mix, with one plant per pot, and used in the test when 12 to 14 days old. Plants were inoculated with a spore suspension 24 hr following fungicide treatments. After inoculation the plants remained in the greenhouse set at 20° C. until disease was fully expressed. Fungicide formulation, application and disease assessment on the sprayed leaves followed the procedures as described in the Example A.

[1] = test system: Blumeria graminis f. sp. hordei; Synonym: Erysiphe graminis f. sp. hordei; assay: Barley Powdery Mildew (ERYSGH) disease control; details: 1 Day Protectant; for pest or weed control at 100 ppm: Blumeria graminis, 24 h, read-out: Disease Control ERYSGH 1 DP
Procedure: Technical grades of materials were dissolved in acetone, which were then mixed with nine volumes of water containing 110 ppm Triton X-100. The fungicide solutions were applied onto wheat seedlings using an automated booth sprayer to run-off. All sprayed plants were allowed to air dry prior to further handling. All fungicides were evaluated using the aforementioned method for their activity vs. all target diseases. Wheat leaf blotch and brown rust activity were also evaluated using track spray applications, in which case the fungicides were formulated as EC formulations, containing 0.1% Trycol 5941 in the spray solutions. Wheat plants (variety Yuma) were grown from seed in a greenhouse in 50% mineral soil/50% soil-less Metro mix until the first leaf was fully emerged, with 7-10 seedlings per pot. These plants were inoculated with an aqueous spore suspension of Septoria tritici either prior to or after fungicide treatments. After inoculation the plants were kept in 100% relative humidity (one day in a dark dew chamber followed by two to three days in a lighted dew chamber at 20° C.) to permit spores to germinate and infect the leaf. The plants were then transferred to a greenhouse set at 20° C. for disease to develop. When disease symptoms were fully expressed on the 1st leaves of untreated plants, infection levels were assessed on a scale of 0 to 100 percent disease severity. Percent disease control was calculated using the ratio of disease severity on treated plants relative to untreated plants. Barley seedlings (variety Harrington) were propagated in soil-less Metro mix, with each pot having 8 to 12 plants, and used in the test when first leaf was fully emerged. Test plants were inoculated by dusting with infected stock plants 24 hr after fungicide treatments. After inoculation the plants were kept in a greenhouse set at 20° C. for disease to develop. Fungicide formulation, application and disease assessment on the sprayed leaves followed the procedures as described in the Example A.

Leptosphaeria nodorum = assay: Wheat Glume Blotch (LEPTNO) disease control; details: 1 Day Protectant; for pest or weed control at 100 ppm: Parastagonospora nodorum, topical, 24 h, read-out: Disease Control LEPTNO 1 DP
Procedure: Technical grades of materials were dissolved in acetone, which were then mixed with nine volumes of water containing 110 ppm Triton X-100. The fungicide solutions were applied onto wheat seedlings using an automated booth sprayer to run-off. All sprayed plants were allowed to air dry prior to further handling. All fungicides were evaluated using the aforementioned method for their activity vs. all target diseases. Wheat leaf blotch and brown rust activity were also evaluated using track spray applications, in which case the fungicides were formulated as EC formulations, containing 0.1% Trycol 5941 in the spray solutions. Wheat plants (variety Yuma) were grown from seed in a greenhouse in 50% mineral soil/50% soil-less Metro mix until the first leaf was fully emerged, with 7-10 seedlings per pot. These plants were inoculated with an aqueous spore suspension of Septoria tritici either prior to or after fungicide treatments. After inoculation the plants were kept in 100% relative humidity (one day in a dark dew chamber followed by two to three days in a lighted dew chamber at 20° C.) to permit spores to germinate and infect the leaf. The plants were then transferred to a greenhouse set at 20° C. for disease to develop. When disease symptoms were fully expressed on the 1st leaves of untreated plants, infection levels were assessed on a scale of 0 to 100 percent disease severity. Percent disease control was calculated using the ratio of disease severity on treated plants relative to untreated plants. Wheat plants (variety Yuma) were grown from seed in a greenhouse in 50% mineral soil/50% soil-less Metro mix until the first leaf was fully emerged, with 7-10 seedlings per pot. These plants were inoculated with an aqueous spore suspension of Leptosphaeria nodorum 24 hr after fungicide treatments. After inoculation the plants were kept in 100% relative humidity (one day in a dark dew chamber followed by two days in a lighted dew chamber at 20° C.) to permit spores to germinate and infect the leaf. The plants were then transferred to a greenhouse set at 20° C. for disease to develop. Fungicide formulation, application and disease assessment followed the procedures as described in the Example A.

SMILES	pest or weed control at 100 ppm (Alternaria solani) [%]	pest or weed control at 100 ppm (Erysiphe cichoracearum) [%]	pest or weed control at 100 ppm [1] [%]	pest or weed control at 100 ppm (Leptosphaeria nodorum) [%]	Disease Control ALTESO 1 DP (Alternaria solani; 100 ppm)	Disease Control ERYSCI 1 DP (Erysiphe cichoracearum; 100 ppm)	Disease Control ERYSGH 1 DP ([1]; 100 ppm)	Disease Control LEPTNO 1 DP (Leptosphaeria nodorum; 100 ppm)
COc1ccnc(C(=O)N[C@H]2CCC[C@H](Cc3ccccc3)[C@@H](OCC(C)C)[C@H](C)OC2=O)c1OC(C)=O [Compound F70]	0 to 80	80 to 100	80 to 100	80 to 100	–	–	–	–
COc1ccnc(C(=O)N[C@H]2CCC[C@H](Cc3ccc(F)cc3)[C@@H](OCC3CC3)[C@H](C)OC2=O)c1OCOC(C)=O [Compound F98]	–	–	–	–	A (80-100)	A (80-100)	A (80-100)	A (80-100)
CCOCC(=O)OCOc1c(OC)ccnc1C(=O)N[C@H]1CCC[C@H](Cc2ccccc2)[C@@H](OCC(C)C)[C@H](C)OC1=O [Compound F172]	80 to 100	80 to 100	80 to 100	80 to 100	–	–	–	–
COc1ccnc(C(=O)N[C@H]2CCC[C@H](CC3CCCC3)[C@@H](OCC3CC3)[C@H](C)OC2=O)c1OCOC(C)=O [Compound F117]	80 to 100	80 to 100	80 to 100	80 to 100	–	–	–	–
COc1ccnc(C(=O)N[C@H]2CCC[C@H](Cc3ccccc3)[C@@H](OCC(C)C)[C@H](C)OC2=O)c1OCOC(=O)C(C)C [Compound F151]	80 to 100	80 to 100	80 to 100	80 to 100	–	–	–	–
CCCO[C@@H]1[C@@H](CCC(C)C)CCC[C@H](NC(=O)c2nccc(OC)c2OC(C)=O)C(=O)O[C@H]1C [Compound F64]	80 to 100	80 to 100	80 to 100	80 to 100	–	–	–	–
CCCO[C@@H]1[C@@H](CCC(C)C)CCC[C@H](NC(=O)c2nccc(OC)c2OCOC(C)=O)C(=O)O[C@H]1C [Compound F92]	80 to 100	80 to 100	0 to 80	80 to 100	–	–	–	–
CCCO[C@@H]1[C@@H](Cc2ccccc2)CCC[C@H](NC(=O)c2nccc(OC)c2OC(=O)CCOC)C(=O)O[C@H]1C [Compound F198]	80 to 100	80 to 100	80 to 100	80 to 100	–	–	–	–
CCOCC(=O)OCOc1c(OC)ccnc1C(=O)N[C@H]1CCC[C@H](CCOC)[C@@H](Oc2ccccc2)[C@H](C)OC1=O [Compound F183]	0 to 80	0 to 80	0 to 80	80 to 100	–	–	–	–
CCO[C@@H]1[C@@H](Cc2ccccc2)CCC[C@H](NC(=O)c2nccc(OC)c2OC(C)=O)C(=O)O[C@H]1C [Compound F87]	80 to 100	0 to 80	80 to 100	80 to 100	–	–	–	–
COc1ccnc(C(=O)N[C@H]2CCC[C@H](Cc3ccc(F)cc3)[C@@H](OCC3CC3)[C@H](C)OC2=O)c1OC(C)=O [Compound F67]	80 to 100	0 to 80	80 to 100	80 to 100	–	–	–	–
COCC[C@H]1CCC[C@H](NC(=O)c2nccc(OC)c2OC(C)=O)C(=O)O[C@@H](C)[C@@H]1Oc1ccccc1 [Compound F78]	0 to 80	0 to 80	0 to 80	80 to 100	–	–	–	–
